Test results reported in the NIST ThermoML archive (doi:10.1007/s10765-013-1469-0).

How the values were obtained:
[1] = 101 kPa, Liquid; for viscosity: Concentric cylinders viscometry; for mass density: Vibrating tube method
[2] = refractive index (Na D-line) (dimensionless); conditions: 101.33 kPa, Liquid, Standard Abbe refractometry
[3] = xn = mol fraction of the nth substance listed; conditions: 101 kPa, Liquid, x1 = 1; for viscosity: Concentric cylinders viscometry; for mass density: Vibrating tube method
[4] = refractive index (Na D-line) (dimensionless); xn = mol fraction of the nth substance listed; conditions: 101 kPa, Liquid, Standard Abbe refractometry, x1 = 1

CCCCO [butan-1-ol]
Conditions	mass density, [1] [kg/m3]	refractive index, [2]	viscosity, [1] [mPa·s]
288.15 K	813.407	1.40131	3.356
293.15 K	809.621	1.39932	2.965
298.15 K	805.804	1.39729	2.593
303.15 K	801.964	1.39529	2.277
308.15 K	798.091	1.39317	2.008
313.15 K	794.181	1.39104	1.78
318.15 K	790.229	1.38893	1.583
323.15 K	786.228	1.38683	1.412
328.15 K	782.172	1.38474	1.264
333.15 K	778.056	1.38237	1.132

CCCCO [butan-1-ol] + COCCOCCOCCOCCOC
Conditions	mass density, [3] [kg/m3]	refractive index, [4]	viscosity, [3] [mPa·s]
288.15 K	813.407	1.40131	3.356
293.15 K	809.621	1.39932	2.965
298.15 K	805.804	1.39729	2.593
303.15 K	801.964	1.39529	2.277
308.15 K	798.091	1.39317	2.008
313.15 K	794.181	1.39104	1.78
318.15 K	790.229	1.38893	1.583
323.15 K	786.228	1.38683	1.412
328.15 K	782.172	1.38474	1.264
333.15 K	778.056	1.38237	1.132

COCCOCCOCCOCCOC [2,5,8,11,14-pentaoxapentadecane]
Conditions	mass density, [1] [kg/m3]	refractive index, [2]	viscosity, [1] [mPa·s]
288.15 K	1015.63	1.4345	4.341
293.15 K	1011	1.43238	3.834
298.15 K	1006.36	1.43027	3.38
303.15 K	1001.73	1.42815	3.004
308.15 K	997.104	1.42603	2.691
313.15 K	992.481	1.42394	2.426
318.15 K	987.859	1.42183	2.199
323.15 K	983.234	1.41973	2.006
328.15 K	978.613	1.41765	1.838
333.15 K	973.989	1.41553	1.691
